Values of other authors as cited in article PMC2923042 (Journal of chemical information and modeling, 2008).

Test system: catL
Details: extrapolated from 63% inhibition at 10^-7 M; ref Tsuge et al.[15]

## CN(C)C(=O)[C@H](Cc1ccccc1)NC(=O)[C@H]1O[C@@H]1C(=O)NCCc1ccccn1 [CLIK-148]
  IC50: < 100 nM
